This assay has as its system B6C3F1 mice, Lewis lung carcinoma iv, survival T/C. The assay is described as follows: NCI In Vivo Anticancer Drug Screen. Data for tumor model Lewis Lung Carcinoma (intravenous) in B6C3F1 mice. The settings on record: endpoint: median survival time, schedule: Q01DX009 (ip), higher = longer survival. The procedure, abridged: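 Read-out is survival, expressed as the treated-group measurement over the vehicle control-group measurement. Animals bore a transplantable tumor and were given compound.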

Setting [1] is: dose: 12.5 mg/kg/injection, vehicle: suspension in saline.
Setting [2] is: dose: 25.0 mg/kg/injection, vehicle: suspension in saline.
[3] abbreviates: dose: 50.0 mg/kg/injection, vehicle: suspension in saline.
Setting [4] is: dose: 6.25 mg/kg/injection, vehicle: saline with Tween-80.
Where [5] appears, read: dose: 12.5 mg/kg/injection, vehicle: saline with Tween-80.
The mark [6] stands for this setting: dose: 25.0 mg/kg/injection, vehicle: saline with Tween-80.
Where [7] appears, read: dose: 50.0 mg/kg/injection, vehicle: saline with Tween-80.
[8] abbreviates: dose: 100.0 mg/kg/injection, vehicle: saline with Tween-80.
[9] abbreviates: dose: 200.0 mg/kg/injection, vehicle: saline with Tween-80.
The mark [10] stands for this setting: dose: 1.56 mg/kg/injection, vehicle: saline with Tween-80.
Setting [11] is: dose: 12.5 mg/kg/injection, vehicle: Klucel (hydroxypropylcellulose) (HPC).
Setting [12] is: dose: 25.0 mg/kg/injection, vehicle: Klucel (hydroxypropylcellulose) (HPC).
Where [13] appears, read: dose: 100.0 mg/kg/injection, vehicle: Klucel (hydroxypropylcellulose) (HPC).
[14] abbreviates: dose: 200.0 mg/kg/injection, vehicle: Klucel (hydroxypropylcellulose) (HPC).
Where [15] appears, read: dose: 400.0 mg/kg/injection, vehicle: Klucel (hydroxypropylcellulose) (HPC).
[16] abbreviates: dose: 12.5 mg/kg/injection, vehicle: saline.
[17] abbreviates: dose: 25.0 mg/kg/injection, vehicle: saline.
Setting [18] is: dose: 50.0 mg/kg/injection, vehicle: saline.
Where [19] appears, read: dose: 100.0 mg/kg/injection, vehicle: saline.

“And” between values parts separate entries of the source, which are not always exact repeats. Equal entries are not always repeated. Toxic doses and inconclusive results are not listed.

For `C1OC1C1CO1` (stereo unspecified), the T/C runs as follows: (dose: 1.25 mg/kg/injection, vehicle: suspension in saline) 101 % of control; (dose: 2.5 mg/kg/injection, vehicle: suspension in saline) 112 % of control; (dose: 5.0 mg/kg/injection, vehicle: suspension in saline) 105 % of control; (dose: 10.0 mg/kg/injection, vehicle: suspension in saline) 99 % of control; (dose: 20.0 mg/kg/injection, vehicle: suspension in saline) 101 % of control; (dose: 40.0 mg/kg/injection, vehicle: suspension in saline) 108 % of control.
On to `O=c1[nH]cnc2[nH]ncc12`, for which the T/C under setting [1] was 95 % of control; the T/C under setting [2] was 105 % of control; the T/C under setting [3] was 95 % of control; the T/C (dose: 100.0 mg/kg/injection, vehicle: suspension in saline) was 106 % of control; the T/C (dose: 200.0 mg/kg/injection, vehicle: suspension in saline) was 112 % of control; the T/C (dose: 400.0 mg/kg/injection, vehicle: suspension in saline) is 120 % of control.
In the case of `C=C(OP(=O)(OC)OC)Sc1ccccc1C`, the T/C (dose: 0.06 mg/kg/injection, vehicle: Klucel (hydroxypropylcellulose) (HPC)) is 105 % of control; the T/C (dose: 0.12 mg/kg/injection, vehicle: Klucel (hydroxypropylcellulose) (HPC)) is 104 % of control; the T/C (dose: 0.25 mg/kg/injection, vehicle: Klucel (hydroxypropylcellulose) (HPC)) was 110 % of control; the T/C (dose: 0.37 mg/kg/injection, vehicle: Klucel (hydroxypropylcellulose) (HPC)) was 100 % of control; the T/C (dose: 0.5 mg/kg/injection, vehicle: Klucel (hydroxypropylcellulose) (HPC)) was 89 % of control; the T/C (dose: 0.75 mg/kg/injection, vehicle: Klucel (hydroxypropylcellulose) (HPC)) is 91 % of control.
Turning to `O=CC=O`, the T/C was 102 % of control under setting [4]; 116 % of control under setting [5]; 107 % of control under setting [6]; 107 % of control under setting [7]; 95 % of control under setting [8]; 101 % of control under setting [9].
As to `COc1cc2c[n+](C)c3c(c2cc1OC)Cc1cc2c(cc1-3)OCO2`, the T/C runs as follows: under setting [1], 97 % of control; under setting [2], 114 % of control; under setting [3], 119 % of control.
Consider `CCCCCCCCCCCCN1C(C)=CS/C1=C\C=C\c1scc(C)[n+]1CCCCCCCCCCCC`, for which the T/C under setting [10] was 90 % of control.
Regarding `CCCCC(=O)OCC1OC(n2cnc3c(=S)nc[nH]c32)C(OC(=O)CCCC)C1OC(=O)CCCC` (stereo unspecified), the T/C under setting [5] was 99 % of control and the T/C under setting [6] is 100 % of control.
`C[CH2][Sn]([CH2]C)([CH2]C(=O)OC)[CH2]C(=O)OC`: the T/C was 102 % of control (dose: 0.78 mg/kg/injection, vehicle: saline with Tween-80); 104 % of control under setting [10]; 99 % of control (dose: 3.12 mg/kg/injection, vehicle: saline with Tween-80); 101 % of control under setting [4]; 104 % of control and 105 % of control under setting [5].
For `OCC1OC(n2cnc3c(NO)ncnc32)C(O)C1O` (stereo unspecified), the T/C reads like this: under setting [11], 102 % of control; under setting [12], 97 % of control; (dose: 50.0 mg/kg/injection, vehicle: Klucel (hydroxypropylcellulose) (HPC)) 109 % of control; under setting [13], 105 % of control; under setting [14], 110 % of control; under setting [15], 109 % of control.
As to `COC1/C=C/C=C(/C)Cc2cc(O)c(Cl)c(c2)N(C)C(=O)CC(OC(=O)C(C)C)C2(C)OC2C(C)C2CC1(O)NC(=O)O2` (stereo unspecified), the T/C was 101 % of control (dose: 0.06 mg/kg/injection, vehicle: saline + alcohol); 96 % of control (dose: 0.12 mg/kg/injection, vehicle: saline + alcohol); 100 % of control (dose: 0.25 mg/kg/injection, vehicle: saline + alcohol); 100 % of control (dose: 0.5 mg/kg/injection, vehicle: saline + alcohol).
For the compound `O=C(c1cccnc1)c1cc(-c2ccccn2)c(=O)n2ccccc12`, the T/C was 100 % of control under setting [6]; 96 % of control under setting [7]; 102 % of control under setting [8]; 105 % of control under setting [9]; 102 % of control (dose: 400.0 mg/kg/injection, vehicle: saline with Tween-80).
Regarding `COc1ccc2ccccc2c1C1NC(=O)c2ccccc2N1` (stereo unspecified), the T/C under setting [11] is 97 % of control; the T/C under setting [12] was 100 % of control; the T/C under setting [13] was 99 % of control; the T/C under setting [14] was 101 % of control; the T/C under setting [15] was 101 % of control.
With `Cc1cc(NCCCCCCCCNc2cc(C)nc3cc(N(C)C)ccc23)c2ccc(N(C)C)cc2n1`, the T/C by setting is: (dose: 3.12 mg/kg/injection, vehicle: distilled water + Tween-80 + alcohol) 102 % of control; (dose: 6.25 mg/kg/injection, vehicle: distilled water + Tween-80 + alcohol) 102 % of control; (dose: 12.5 mg/kg/injection, vehicle: distilled water + Tween-80 + alcohol) 109 % of control; (dose: 25.0 mg/kg/injection, vehicle: distilled water + Tween-80 + alcohol) 111 % of control and 118 % of control.
Turning to `NC(=O)c1csc(C2O[C@@H](COP(=O)(O)OP(=O)(O)OC[C@H]3OC(n4cnc5c(N)ncnc54)[C@H](O)[C@@H]3O)[C@H](O)[C@@H]2O)n1` (stereo partly specified), the T/C is, setting by setting: (dose: 3.12 mg/kg/injection, vehicle: water) 101 % of control; (dose: 6.25 mg/kg/injection, vehicle: water) 98 % of control; (dose: 12.5 mg/kg/injection, vehicle: water) 104 % of control; (dose: 25.0 mg/kg/injection, vehicle: water) 120 % of control; (dose: 50.0 mg/kg/injection, vehicle: water) 209 % of control.
With `COc1cc2cc3cc4cc(OC)c(OC)cc4c(C)[n+]3cc2cc1OC` (tested in a mixture with another compound), the T/C was 112 % of control under setting [16], 106 % of control under setting [17], 117 % of control under setting [18] and 120 % of control under setting [19].
With `CSc1ncnc2c1ncn2C1OC(CO)C(O)C1O` (stereo unspecified), the T/C is 96 % of control (dose: 3.12 mg/kg/injection, vehicle: saline + alcohol); 97 % of control (dose: 6.25 mg/kg/injection, vehicle: saline + alcohol); 100 % of control (dose: 12.5 mg/kg/injection, vehicle: saline + alcohol); 105 % of control (dose: 25.0 mg/kg/injection, vehicle: saline + alcohol); 117 % of control (dose: 50.0 mg/kg/injection, vehicle: saline + alcohol).
Take `O=C1N(CC2CO2)CCN1CC1CO1` (stereo unspecified): the T/C under setting [16] is 114 % of control, the T/C under setting [17] is 112 % of control and the T/C under setting [18] was 114 % of control.
Take `CC1(C)OCC2OC=CC(=O)C2O1` (stereo unspecified): the T/C was 98 % of control under setting [17]; 98 % of control under setting [18]; 105 % of control under setting [19]; 102 % of control (dose: 200.0 mg/kg/injection, vehicle: saline); 104 % of control (dose: 400.0 mg/kg/injection, vehicle: saline).

These data come from PubChem BioAssay AID276 (DTP/NCI, 2004).
